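Briefly, cells in 96-well plates were exposed to five compound concentrations for 48 h, and endpoints were estimated by linear interpolation. The concentration for 50% growth inhibition is given as GI50. TGI is the concentration that stops growth completely.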
Legend:
Assay in all cases: NCI anticancer screen, dose series, 48 h
786-0 renal = tested on: 786-0 renal
A498 renal = tested on: A498 renal
A549 NSCLC = tested on: A549 NSCLC
ACHN renal = tested on: ACHN renal
BT-549 breast = tested on: BT-549 breast
CAKI-1 renal = tested on: CAKI-1 renal
CCRF-CEM leukemia = tested on: CCRF-CEM leukemia
COLO 205 colon = tested on: COLO 205 colon
DU-145 prostate = tested on: DU-145 prostate
EKVX NSCLC = tested on: EKVX NSCLC
HCC-2998 colon = tested on: HCC-2998 colon
HCT-116 colon = tested on: HCT-116 colon
HCT-15 colon = tested on: HCT-15 colon
HL-60(TB) leukemia = tested on: HL-60(TB) leukemia
HOP-62 NSCLC = tested on: HOP-62 NSCLC
HOP-92 NSCLC = tested on: HOP-92 NSCLC
HS 578T breast = tested on: HS 578T breast
HT29 colon = tested on: HT29 colon
IGROV1 ovarian = tested on: IGROV1 ovarian
K-562 leukemia = tested on: K-562 leukemia
KM12 colon = tested on: KM12 colon
LOX IMVI melanoma = tested on: LOX IMVI melanoma
M14 melanoma = tested on: M14 melanoma
MALME-3M melanoma = tested on: MALME-3M melanoma
MCF7 breast = tested on: MCF7 breast
MDA-MB-231 breast = tested on: MDA-MB-231 breast
MDA-MB-435 = tested on: MDA-MB-435
MOLT-4 leukemia = tested on: MOLT-4 leukemia
NCI-H226 lung = tested on: NCI-H226 lung
NCI-H23 lung = tested on: NCI-H23 lung
NCI-H460 lung = tested on: NCI-H460 lung
NCI-H522 lung = tested on: NCI-H522 lung
NCI/ADR-RES ovarian = tested on: NCI/ADR-RES ovarian
OVCAR-3 ovarian = tested on: OVCAR-3 ovarian
OVCAR-4 ovarian = tested on: OVCAR-4 ovarian
OVCAR-5 ovarian = tested on: OVCAR-5 ovarian
OVCAR-8 ovarian = tested on: OVCAR-8 ovarian
PC-3 prostate = tested on: PC-3 prostate
RPMI-8226 leukemia = tested on: RPMI-8226 leukemia
RXF 393 renal = tested on: RXF 393 renal
SF-268 CNS = tested on: SF-268 CNS
SF-295 CNS = tested on: SF-295 CNS
SF-539 CNS = tested on: SF-539 CNS
SK-MEL-2 melanoma = tested on: SK-MEL-2 melanoma
SK-MEL-28 melanoma = tested on: SK-MEL-28 melanoma
SK-MEL-5 melanoma = tested on: SK-MEL-5 melanoma
SK-OV-3 ovarian = tested on: SK-OV-3 ovarian
SN12C renal = tested on: SN12C renal
SNB-19 CNS = tested on: SNB-19 CNS
SNB-75 CNS = tested on: SNB-75 CNS
SR leukemia = tested on: SR leukemia
SW-620 colon = tested on: SW-620 colon
T-47D breast = tested on: T-47D breast
TK-10 renal = tested on: TK-10 renal
U251 CNS = tested on: U251 CNS
UACC-257 melanoma = tested on: UACC-257 melanoma
UACC-62 melanoma = tested on: UACC-62 melanoma
UO-31 renal = tested on: UO-31 renal

`CCOC(=O)c1ccc2c(c1)c1c(C)c3ccncc3c(C)c1n2C` gave a GI50 (786-0 renal) of 642 nM, a TGI (786-0 renal) of 2030 nM and a GI50 (A498 renal) of 664 nM. The TGI (A498 renal) was 2050 nM, the GI50 (A549 NSCLC) was 382 nM and the TGI (A549 NSCLC) was 1880 nM. The GI50 (ACHN renal) was 265 nM, the TGI (ACHN renal) was 1320 nM and the GI50 (BT-549 breast) was 1270 nM. For the same compound, the TGI (BT-549 breast) was 3700 nM, the GI50 (CAKI-1 renal) was 287 nM and the TGI (CAKI-1 renal) was 1490 nM. The GI50 (CCRF-CEM leukemia) was 851 nM, the TGI (CCRF-CEM leukemia) was 8640 nM and the GI50 (COLO 205 colon) was 350 nM. For the same compound, the TGI (COLO 205 colon) was 1820 nM, the GI50 (DU-145 prostate) was 546 nM and the TGI (DU-145 prostate) was 2330 nM. The GI50 (EKVX NSCLC) was 384 nM, the TGI (EKVX NSCLC) was 2370 nM and the GI50 (HCC-2998 colon) was 1090 nM. The TGI (HCC-2998 colon) was 2950 nM, the GI50 (HCT-116 colon) was 287 nM and the TGI (HCT-116 colon) was 1380 nM. The GI50 (HCT-15 colon) was 381 nM, the TGI (HCT-15 colon) was 1650 nM and the GI50 (HL-60(TB) leukemia) was 1160 nM. It also gave a TGI (HL-60(TB) leukemia) of 6080 nM, a GI50 (HOP-62 NSCLC) of 408 nM and a TGI (HOP-62 NSCLC) of 2160 nM. For the same compound, the GI50 (HOP-92 NSCLC) was 303 nM, the TGI (HOP-92 NSCLC) was 2360 nM and the GI50 (HS 578T breast) was 543 nM. The TGI (HS 578T breast) was 3240 nM, the GI50 (HT29 colon) was 362 nM and the TGI (HT29 colon) was 1780 nM. The GI50 (IGROV1 ovarian) was 211 nM, the TGI (IGROV1 ovarian) was 1460 nM and the GI50 (K-562 leukemia) was 413 nM. The TGI (K-562 leukemia) was 2530 nM, the GI50 (KM12 colon) was 517 nM and the TGI (KM12 colon) was 2580 nM. It also gave a GI50 (LOX IMVI melanoma) of 349 nM, a TGI (LOX IMVI melanoma) of 1620 nM and a GI50 (M14 melanoma) of 505 nM. It also gave a TGI (M14 melanoma) of 2080 nM, a GI50 (MALME-3M melanoma) of 375 nM and a TGI (MALME-3M melanoma) of 1680 nM. The GI50 (MCF7 breast) was 346 nM, the TGI (MCF7 breast) was 1750 nM and the GI50 (MDA-MB-231 breast) was 622 nM. The TGI (MDA-MB-231 breast) was 2400 nM, the GI50 (MDA-MB-435) was 649 nM and the TGI (MDA-MB-435) was 1960 nM. It also gave a GI50 (MOLT-4 leukemia) of 393 nM, a TGI (MOLT-4 leukemia) of 3190 nM and a GI50 (NCI-H226 lung) of 260 nM. It also gave a TGI (NCI-H226 lung) of 1450 nM, a GI50 (NCI-H23 lung) of 376 nM and a TGI (NCI-H23 lung) of 1980 nM. It also gave a GI50 (NCI-H460 lung) of 680 nM, a TGI (NCI-H460 lung) of 3460 nM and a GI50 (NCI-H522 lung) of 564 nM. It also gave a TGI (NCI-H522 lung) of 2550 nM, a GI50 (NCI/ADR-RES ovarian) of 470 nM and a TGI (NCI/ADR-RES ovarian) of 2900 nM. The GI50 (OVCAR-3 ovarian) was 692 nM, the TGI (OVCAR-3 ovarian) was 2620 nM and the GI50 (OVCAR-4 ovarian) was 745 nM. For the same compound, the TGI (OVCAR-4 ovarian) was 2550 nM, the GI50 (OVCAR-5 ovarian) was 796 nM and the TGI (OVCAR-5 ovarian) was 2840 nM. It also gave a GI50 (OVCAR-8 ovarian) of 436 nM, a TGI (OVCAR-8 ovarian) of 3250 nM and a GI50 (PC-3 prostate) of 486 nM. It also gave a TGI (PC-3 prostate) of 2150 nM, a GI50 (RPMI-8226 leukemia) of 440 nM and a TGI (RPMI-8226 leukemia) of 2440 nM. It also gave a GI50 (RXF 393 renal) of 349 nM, a TGI (RXF 393 renal) of 1670 nM and a GI50 (SF-268 CNS) of 846 nM. For the same compound, the TGI (SF-268 CNS) was 3480 nM, the GI50 (SF-295 CNS) was 516 nM and the TGI (SF-295 CNS) was 4630 nM. It also gave a GI50 (SF-539 CNS) of 467 nM, a TGI (SF-539 CNS) of 1920 nM and a GI50 (SK-MEL-2 melanoma) of 897 nM. It also gave a TGI (SK-MEL-2 melanoma) of 2580 nM, a GI50 (SK-MEL-28 melanoma) of 539 nM and a TGI (SK-MEL-28 melanoma) of 1900 nM. The GI50 (SK-MEL-5 melanoma) was 384 nM, the TGI (SK-MEL-5 melanoma) was 1510 nM and the GI50 (SK-OV-3 ovarian) was 721 nM. For the same compound, the TGI (SK-OV-3 ovarian) was 2990 nM, the GI50 (SN12C renal) was 457 nM and the TGI (SN12C renal) was 2310 nM. The GI50 (SNB-19 CNS) was 441 nM, the TGI (SNB-19 CNS) was 2320 nM and the GI50 (SNB-75 CNS) was 380 nM. For the same compound, the TGI (SNB-75 CNS) was 1950 nM, the GI50 (SR leukemia) was 269 nM and the TGI (SR leukemia) was 3950 nM. For the same compound, the GI50 (SW-620 colon) was 322 nM, the TGI (SW-620 colon) was 1800 nM and the GI50 (T-47D breast) was 855 nM. For the same compound, the TGI (T-47D breast) was 3500 nM, the GI50 (TK-10 renal) was 1150 nM and the TGI (TK-10 renal) was 3050 nM. It also gave a GI50 (U251 CNS) of 468 nM, a TGI (U251 CNS) of 1980 nM and a GI50 (UACC-257 melanoma) of 472 nM. For the same compound, the TGI (UACC-257 melanoma) was 2600 nM, the GI50 (UACC-62 melanoma) was 378 nM and the TGI (UACC-62 melanoma) was 1730 nM. For the same compound, the GI50 (UO-31 renal) was 165 nM and the TGI (UO-31 renal) was 1400 nM.
